The results in this text go back to patent US12258355B2, “Probes for imaging huntingtin protein” (CHDI Foundation, Inc., priority 2014, dated 2025).

The target of the test is T1, Q46 protein aggregates (Homo sapiens, UniProt P42858).
T1 construct: fused on or other part: GST at the N-terminus, cut off with thrombin before the test to start aggregation; The wells held aggregated Q46 without GST
In words: Q46 radioligand binding assay (RBA). Particulars: 10 nM ligand [3H3]MK-3328. On the procedure: Q46 Radioligand Binding Assay
For radioligand binding assays (RBA) GST-Q46 protein was generated based on a previous publication (Scherzinger et al. Cell, Vol. 90, 549-558, Aug. 8, 1997). For experiments 33 μM GST-Q46 was incubated with 150 μg/mL thrombin in assay buffer (150 mM NaCl, 50 mM Tris pH 8.0) and 2 mM CaCl2 for 16 hours at 37° C. Aggregated Q46 was pelleted by centrifugation for 5 minutes at 13,000 rpm in a bench top centrifuge and re-dissolved in the same volume of assay buffer. Test compounds were prepared by titration in DMSO at 11 concentrations from 33 μM to 1 nM. For the RBA, Q46 protein aggregates and test compounds were pre-incubated in assay buffer for 20 minutes at room temperature, in 140 μL/well in a 96-well plate (pp, round bottom). Then, ligand was added in 10 μL/well and incubated for 60 minutes at 37° C. Final assay concentrations were 1 μM to 30 pM test compound, 5 μM Q46 protein (equivalent monomer concentration) and 10 nM ligand [^3H3]MK-3328 (Harrision et al., ACS Med. Chem. Lett., 2 (2011), pp 498-502). Samples were transferred onto GF/B filter plates and washed 2× with 200 μL PBS using a Filtermate Harvester. After drying filter plates for 1 hour at 37° C., the back of the plates were sealed with foil and 30 μL/well scintillation fluid (Packard MicroScint 40) added, incubated for 15 minutes in the dark and counted in a TopCount reader. For analysis, replicate data from independent assay plates were normalized towards 0% and 100% inhibition using control wells of vehicle (0% inhibition) and 3 μM unlabelled MK-3328 (100% inhibition). IC50 values were determined with a sigmoidal inhibition model with four variables (top, bottom, slope, IC50) in a global fit using the normalized replicate data.

T1 sequence (P42858 with tags, fused parts or gaps with the stated changes, form open): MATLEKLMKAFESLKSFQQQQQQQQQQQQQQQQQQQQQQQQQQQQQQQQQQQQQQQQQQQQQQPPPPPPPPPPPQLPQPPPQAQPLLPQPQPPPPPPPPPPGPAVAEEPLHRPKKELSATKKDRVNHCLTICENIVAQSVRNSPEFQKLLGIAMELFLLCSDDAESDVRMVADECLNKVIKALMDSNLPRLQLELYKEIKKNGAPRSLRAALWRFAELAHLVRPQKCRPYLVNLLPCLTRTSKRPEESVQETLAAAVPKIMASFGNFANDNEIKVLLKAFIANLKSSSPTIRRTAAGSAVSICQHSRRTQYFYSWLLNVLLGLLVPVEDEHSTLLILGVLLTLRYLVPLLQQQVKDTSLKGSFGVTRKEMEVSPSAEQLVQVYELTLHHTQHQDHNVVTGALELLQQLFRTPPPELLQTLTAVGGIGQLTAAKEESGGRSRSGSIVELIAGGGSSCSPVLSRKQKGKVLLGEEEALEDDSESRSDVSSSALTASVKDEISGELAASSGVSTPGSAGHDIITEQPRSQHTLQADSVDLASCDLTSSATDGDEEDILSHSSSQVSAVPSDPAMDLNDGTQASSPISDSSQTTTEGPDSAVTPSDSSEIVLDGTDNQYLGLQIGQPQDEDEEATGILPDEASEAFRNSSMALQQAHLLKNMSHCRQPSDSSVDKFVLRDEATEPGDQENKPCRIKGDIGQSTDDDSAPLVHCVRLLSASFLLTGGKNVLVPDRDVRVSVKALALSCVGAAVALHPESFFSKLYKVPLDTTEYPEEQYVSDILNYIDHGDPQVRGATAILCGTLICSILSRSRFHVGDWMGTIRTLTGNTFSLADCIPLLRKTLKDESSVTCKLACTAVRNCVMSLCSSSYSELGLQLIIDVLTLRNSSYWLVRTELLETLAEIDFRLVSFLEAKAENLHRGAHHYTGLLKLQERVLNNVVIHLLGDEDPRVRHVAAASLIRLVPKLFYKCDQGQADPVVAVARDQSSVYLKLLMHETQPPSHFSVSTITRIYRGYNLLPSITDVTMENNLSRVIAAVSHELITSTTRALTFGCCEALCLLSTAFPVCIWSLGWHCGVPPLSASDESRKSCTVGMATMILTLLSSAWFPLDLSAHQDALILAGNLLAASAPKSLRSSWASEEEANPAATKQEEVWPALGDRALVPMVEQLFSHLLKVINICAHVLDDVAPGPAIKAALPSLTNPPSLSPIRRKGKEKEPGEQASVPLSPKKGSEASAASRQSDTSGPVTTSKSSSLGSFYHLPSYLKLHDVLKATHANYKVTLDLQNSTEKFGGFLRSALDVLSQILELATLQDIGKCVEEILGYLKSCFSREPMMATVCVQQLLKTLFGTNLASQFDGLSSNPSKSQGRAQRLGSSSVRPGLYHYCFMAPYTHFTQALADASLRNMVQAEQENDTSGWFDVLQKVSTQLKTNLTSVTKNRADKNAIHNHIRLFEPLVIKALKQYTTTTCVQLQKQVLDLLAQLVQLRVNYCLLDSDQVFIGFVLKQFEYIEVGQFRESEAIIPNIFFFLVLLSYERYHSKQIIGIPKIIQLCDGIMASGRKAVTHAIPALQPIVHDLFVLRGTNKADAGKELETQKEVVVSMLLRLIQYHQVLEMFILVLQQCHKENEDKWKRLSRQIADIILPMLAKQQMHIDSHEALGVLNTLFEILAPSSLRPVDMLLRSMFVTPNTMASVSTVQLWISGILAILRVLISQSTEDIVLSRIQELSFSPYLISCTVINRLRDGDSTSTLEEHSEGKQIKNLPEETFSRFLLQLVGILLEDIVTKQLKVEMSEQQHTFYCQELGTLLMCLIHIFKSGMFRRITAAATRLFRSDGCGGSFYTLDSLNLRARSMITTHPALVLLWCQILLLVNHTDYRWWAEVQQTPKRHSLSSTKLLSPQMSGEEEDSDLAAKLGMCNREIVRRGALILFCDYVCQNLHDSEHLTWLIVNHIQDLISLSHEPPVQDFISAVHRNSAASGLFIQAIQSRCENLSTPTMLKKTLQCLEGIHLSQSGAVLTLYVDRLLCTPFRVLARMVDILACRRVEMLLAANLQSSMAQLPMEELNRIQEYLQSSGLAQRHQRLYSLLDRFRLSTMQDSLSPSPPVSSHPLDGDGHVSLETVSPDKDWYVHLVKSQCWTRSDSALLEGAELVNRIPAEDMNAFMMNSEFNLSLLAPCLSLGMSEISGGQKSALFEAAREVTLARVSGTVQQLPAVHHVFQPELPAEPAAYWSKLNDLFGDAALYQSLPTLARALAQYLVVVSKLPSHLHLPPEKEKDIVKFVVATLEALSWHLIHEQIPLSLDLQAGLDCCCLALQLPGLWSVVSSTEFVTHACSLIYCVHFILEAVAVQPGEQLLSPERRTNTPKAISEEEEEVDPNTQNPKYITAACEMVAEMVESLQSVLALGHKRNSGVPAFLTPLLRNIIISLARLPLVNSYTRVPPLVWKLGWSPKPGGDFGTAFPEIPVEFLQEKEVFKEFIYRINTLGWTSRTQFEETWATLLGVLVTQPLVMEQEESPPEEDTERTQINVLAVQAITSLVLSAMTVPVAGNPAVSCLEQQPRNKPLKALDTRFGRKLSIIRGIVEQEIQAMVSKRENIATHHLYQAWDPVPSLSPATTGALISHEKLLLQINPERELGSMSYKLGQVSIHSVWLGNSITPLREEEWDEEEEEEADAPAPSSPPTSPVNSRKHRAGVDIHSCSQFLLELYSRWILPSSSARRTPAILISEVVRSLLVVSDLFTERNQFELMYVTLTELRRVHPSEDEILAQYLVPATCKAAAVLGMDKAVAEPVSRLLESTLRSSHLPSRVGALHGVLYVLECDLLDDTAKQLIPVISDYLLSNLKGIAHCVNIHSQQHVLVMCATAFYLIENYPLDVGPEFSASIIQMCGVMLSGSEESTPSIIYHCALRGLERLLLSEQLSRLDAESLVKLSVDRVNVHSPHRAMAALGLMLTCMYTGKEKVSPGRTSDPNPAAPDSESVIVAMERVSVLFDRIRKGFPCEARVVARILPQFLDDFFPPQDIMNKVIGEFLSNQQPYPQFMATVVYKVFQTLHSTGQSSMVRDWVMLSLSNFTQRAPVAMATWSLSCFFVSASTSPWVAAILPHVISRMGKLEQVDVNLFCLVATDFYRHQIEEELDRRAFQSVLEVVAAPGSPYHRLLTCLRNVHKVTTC

`c1cncc(-c2nc3cc(Nc4nnc5ccccn45)ccc3o2)c1` [2-(pyridin-3-yl)-N-{[1,2,4]triazolo[4,3-a]pyridin-3-yl}-1,3-benzoxazol-5-amine] gave an IC50 of under 100 nM. `Cn1cc(-c2nc3cc(OCc4cnccn4)cnc3o2)cn1` [2-({[2-(1-methyl-1H-pyrazol-4-yl)-[1,3]oxazolo[5,4-b]pyridin-6-yl]oxy}methyl)pyrazine] gave a half-inhibitory concentration (IC50) of 100 to 500 nM. Compound `COc1ccc(COc2ccc3oc(-c4cccc(OCc5ccccc5)c4)nc3c2)nc1` [2-[3-(benzyloxy)phenyl]-5-[(5-methoxypyridin-2-yl)methoxy]-1,3-benzoxazole] returned an IC50 of under 100 nM. `COCCOc1cncc(-c2nc3cc(OCc4ccc(OC)cn4)ccc3o2)c1` [2-[5-(2-methoxyethoxy)pyridin-3-yl]-5-[(5-methoxypyridin-2-yl)methoxy]-1,3-benzoxazole]: the IC50 was under 100 nM. In the case of `COc1ccc(COc2ccc3oc([C@H]4Cc5ccccc5O4)nc3c2)nc1` [2-[(2R)-2,3-dihydro-1-benzofuran-2-yl]-5-[(5-methoxypyridin-2-yl)methoxy]-1,3-benzoxazole] it was under 100 nM; in that of `COc1ccc(COc2ccc3oc([C@@H]4Cc5ccccc5O4)nc3c2)nc1` [2-[(2S)-2,3-dihydro-1-benzofuran-2-yl]-5-[(5-methoxypyridin-2-yl)methoxy]-1,3-benzoxazole], under 100 nM; in that of `COc1ccc(/C=C/c2nc3cc(OCc4ccc(OC)cn4)ccc3o2)cc1` [2-[(E)-2-(4-methoxyphenyl)ethenyl]-5-[(5-methoxypyridin-2-yl)methoxy]-1,3-benzoxazole], under 100 nM. Compound `COc1cnc(COc2cnc3oc(-c4cnn(C)c4)nc3c2)cn1` [2-methoxy-5-({[2-(1-methyl-1H-pyrazol-4-yl)-[1,3]oxazolo[5,4-b]pyridin-6-yl]oxy}methyl)pyrazine] gave an IC50 of under 100 nM. Compound `COc1ncc(C(=O)Nc2ccc3oc(-c4cccc(C)c4)nc3c2)cn1` [2-methoxy-N-[2-(3-methylphenyl)-1,3-benzoxazol-5-yl]pyrimidine-5-carboxamide] came in with a half-maximal inhibitory concentration (IC50) of under 100 nM. `COc1ccc(-c2nc3cc(NC(=O)c4ccccc4OC)ccc3o2)cc1` [2-methoxy-N-[2-(4-methoxyphenyl)-1,3-benzoxazol-5-yl]benzamide]: the IC50 is under 100 nM. As for `Cn1nc(COc2cnc3oc(-c4cccnc4)nc3c2)ccc1=O` [2-methyl-6-({[2-(pyridin-3-yl)-[1,3]oxazolo[5,4-b]pyridin-6-yl]oxy}methyl)-2,3-dihydropyridazin-3-one], the half-maximal inhibitory concentration (IC50) was in the range of 100 to 500 nM.

In the case of `Cc1cc(C(=O)Nc2ccc3oc(-c4cccnc4)nc3c2)ccn1` [2-methyl-N-[2-(pyridin-3-yl)-1,3-benzoxazol-5-yl]pyridine-4-carboxamide], the IC50 is under 100 nM.

Consider `O=C(COc1ccccc1)Nc1ccc2oc(-c3cccnc3)nc2c1` [2-phenoxy-N-[2-(pyridin-3-yl)-1,3-benzoxazol-5-yl]acetamide], for which the concentration for half-maximal inhibition (IC50) is under 100 nM. `O=C(Nc1ccc2oc(-c3cccnc3)nc2c1)c1cccnc1Oc1ccccc1` [2-phenoxy-N-[2-(pyridin-3-yl)-1,3-benzoxazol-5-yl]pyridine-3-carboxamide]: the IC50 is under 100 nM. For `O=C(Nc1ccc2oc(-c3cccnc3)nc2c1)c1cnc(-c2ccccc2)nc1` [2-phenyl-N-[2-(pyridin-3-yl)-1,3-benzoxazol-5-yl]pyrimidine-5-carboxamide], the IC50 was under 100 nM. The compound `COc1ccc(COc2ccc3oc(N4CCc5nc[nH]c5C4)nc3c2)nc1` [2-{3H,4H,5H,6H,7H-imidazo[4,5-c]pyridin-5-yl}-5-[(5-methoxypyridin-2-yl)methoxy]-1,3-benzoxazole] registered a 50% inhibitory concentration (IC50) of under 100 nM.

`COc1ccc(COc2ccc3oc(-c4ccc5ccccc5n4)nc3c2)nc1` [2-{5-[(5-methoxypyridin-2-yl)methoxy]-1,3-benzoxazol-2-yl}quinoline] showed an IC50 of under 100 nM. Regarding `COc1ccc(COc2ccc3oc(N4CCn5ccnc5C4)nc3c2)nc1` [2-{5H,6H,7H,8H-imidazo[1,2-a]pyrazin-7-yl}-5-[(5-methoxypyridin-2-yl)methoxy]-1,3-benzoxazole], the IC50 was under 100 nM.

By IC50 is commonly meant the concentration needed to halve the response being measured.
